Results reported in patent US20070293477A1, “Novel Compounds” (SMITHKLINE BEECHAM CORPORATION, priority 2004, published 2007).

target: T1, TRPV4 channel receptors (Bos taurus, UniProt A0A8F4X677); test: Ca2+ influx, Fura-2 fluorescence on FlexStation in bovine articular chondrocytes; assay type: cell-based; settings: Fura-2, FlexStation
T1 construct: obtained using this method in bovine articular chondrocytes; endogenous in cells; host or cells: bovine articular chondrocytes
Source text: Ca^2+ influx mediated through TRPV4 channel receptors can be measured using articular chondrocytes from such species as, but not limited to, human, rat, canine, rabbit, monkey, and bovine, using standard techniques in the art such as, but not limited to, Fura-2 (Invitrogen/Molecular Probes, Eugene, Oreg.) fluorescence using a FlexStation (manufactured by Molecular Devices, Sunnyvale, Calif.). Table 1 lists biological data for several representative compounds obtained using this method in bovine articular chondrocytes.
(§1) All exemplary compounds of the present invention were assessed using at least one of the biological assays presented above. Compounds presented in the Examples had EC50 values of about 0.01 μM to about 30 μM as measured by Flex Station using bovine articular chondrocytes and pEC50 values between about 4.5 to about 7.0 as measured by FLIPR assay using TRPV4 expressing HEK cells.

T1 sequence (A0A8F4X677 1-871): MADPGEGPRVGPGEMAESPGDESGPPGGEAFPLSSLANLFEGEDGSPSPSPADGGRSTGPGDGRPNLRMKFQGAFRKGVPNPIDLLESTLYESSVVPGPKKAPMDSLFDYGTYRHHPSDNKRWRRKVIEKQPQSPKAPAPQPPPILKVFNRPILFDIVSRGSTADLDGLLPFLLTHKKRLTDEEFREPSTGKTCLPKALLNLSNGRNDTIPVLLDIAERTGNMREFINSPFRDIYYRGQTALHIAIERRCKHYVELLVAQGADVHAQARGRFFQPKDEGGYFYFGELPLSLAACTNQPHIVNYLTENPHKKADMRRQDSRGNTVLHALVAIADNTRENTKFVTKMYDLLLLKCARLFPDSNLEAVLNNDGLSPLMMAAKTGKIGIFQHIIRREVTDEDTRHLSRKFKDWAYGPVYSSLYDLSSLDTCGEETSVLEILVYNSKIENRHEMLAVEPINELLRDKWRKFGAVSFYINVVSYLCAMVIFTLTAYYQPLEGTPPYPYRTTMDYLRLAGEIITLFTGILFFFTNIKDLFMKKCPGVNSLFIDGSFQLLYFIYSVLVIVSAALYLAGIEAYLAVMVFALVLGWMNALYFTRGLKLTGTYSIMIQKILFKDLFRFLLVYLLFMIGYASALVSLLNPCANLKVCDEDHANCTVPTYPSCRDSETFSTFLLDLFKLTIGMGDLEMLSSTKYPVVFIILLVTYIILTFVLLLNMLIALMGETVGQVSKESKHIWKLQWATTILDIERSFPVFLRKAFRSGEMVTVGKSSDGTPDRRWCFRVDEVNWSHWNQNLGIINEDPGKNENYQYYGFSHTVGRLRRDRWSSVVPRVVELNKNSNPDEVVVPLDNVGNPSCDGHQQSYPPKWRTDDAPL

| EC50 [µM] | SMILES |
| --- | --- |
| 10 to 30 | CC(C)C[C@H](NC(=O)c1cc2ccccc2s1)C(=O)N[C@@H]1CCCN(S(=O)(=O)c2ccc(C#N)cc2)CC1 [Example 8, N-{(1S)-1-[({(4R)-1-[(4-Cyanophenyl)sulfonyl]hexahydro-1H-azepin-4-yl}amino)carbonyl]-3-methylbutyl}-1-benzothiophene-2-carboxamide] |
| 1.01 to 10 | CC(C)C[C@H](NC(=O)c1cc2ccccc2n1C)C(=O)N(C)C1CCCN(S(=O)(=O)c2ccccc2C#N)CC1 (stereo partly drawn) [Example 11, N-((1S)-1-{[{1-[(2-Cyanophenyl)sulfonyl]hexahydro-1H-azepin-4-yl}(methyl)amino]carbonyl}-3-methylbutyl)-1-methyl-1H-indole-2-carboxamide] |
| 0.14 to 1 | CC(C)C[C@H](NC(=O)c1cc2ccccc2s1)C(=O)N[C@@H]1CCCN(S(=O)(=O)c2ccccc2C#N)CC1 [Example 5, N-{(1S)-1-[({(4R)-1-[(2-cyanophenyl)sulfonyl]hexahydro-1H-azepin-4-yl}amino)carbonyl]-3-methylbutyl}-1-benzothiophene-2-carboxamide] |

target: T2, TRPV4 channel receptor (Homo sapiens, UniProt Q9HBA0); test: FLIPR assay using TRPV4 expressing HEK cells; assay type: cell-based; settings: FLIPR method; pEC50 = −log10(EC50 μM)
T2 construct: expressed in transfected cells; host or cells: HEK cells
Source text: Other techniques used to measure TRPV4 channel receptor activation in chondrocytes include, but are not limited to: FLIPR assay, measuring a compound's capability to reduce the amount of ADAMTSs produced and/or released in response to a catabolic stimulus by a cell comprising a TRPV4 channel receptor; measuring a compound's capability to reduce the amount of MMPs produced and/or released in response to a catabolic stimulus by a cell comprising a TRPV4 channel receptor; measuring a compound's capability to effect the amount of nitric oxide (NO) produced in response to a catabolic stimulus by a cell comprising a TRPV4 channel receptor; and measuring a compound's capability to attenuate the inhibition of matrix synthesis in response to a catabolic stimulus by a cell comprising a TRPV4 channel receptor.
as §1

T2 sequence (Q9HBA0 whole entry): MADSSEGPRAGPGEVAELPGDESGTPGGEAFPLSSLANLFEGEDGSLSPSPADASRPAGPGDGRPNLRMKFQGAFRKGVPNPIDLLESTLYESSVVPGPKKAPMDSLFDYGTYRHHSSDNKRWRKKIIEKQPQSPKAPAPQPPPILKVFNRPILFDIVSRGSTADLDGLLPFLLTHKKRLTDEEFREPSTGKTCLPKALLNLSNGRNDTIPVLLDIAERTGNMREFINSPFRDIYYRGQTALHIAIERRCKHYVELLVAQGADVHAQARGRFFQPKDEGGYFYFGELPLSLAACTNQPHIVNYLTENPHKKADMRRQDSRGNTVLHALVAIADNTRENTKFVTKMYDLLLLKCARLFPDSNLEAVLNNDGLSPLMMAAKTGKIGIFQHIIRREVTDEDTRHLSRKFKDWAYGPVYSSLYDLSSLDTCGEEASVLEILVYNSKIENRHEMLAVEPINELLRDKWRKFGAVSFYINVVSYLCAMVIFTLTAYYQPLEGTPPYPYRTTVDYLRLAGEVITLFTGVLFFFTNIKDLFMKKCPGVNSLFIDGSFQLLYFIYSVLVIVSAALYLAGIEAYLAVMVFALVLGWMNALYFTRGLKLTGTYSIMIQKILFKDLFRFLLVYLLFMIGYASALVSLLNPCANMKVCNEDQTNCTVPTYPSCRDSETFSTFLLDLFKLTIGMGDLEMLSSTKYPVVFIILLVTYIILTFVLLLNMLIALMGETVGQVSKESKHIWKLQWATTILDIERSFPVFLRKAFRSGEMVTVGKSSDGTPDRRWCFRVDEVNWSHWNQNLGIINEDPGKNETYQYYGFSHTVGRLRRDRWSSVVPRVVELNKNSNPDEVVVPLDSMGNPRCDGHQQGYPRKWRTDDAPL

| EC50 [µM] | SMILES |
| --- | --- |
| 0.1 to 0.794 | CC(C)C[C@H](NC(=O)c1cc2ccccc2s1)C(=O)N[C@@H]1CCCN(S(=O)(=O)c2ccc(Cl)cc2Cl)CC1 [Example 6, N-{(1S)-1-[({(4R)-1-[(2,4-Dichlorophenyl)sulfonyl]hexahydro-1H-azepin-4-yl}amino)carbonyl]-3-methylbutyl}-1-benzothiophene-2-carboxamide] |
| 10 to 31.6 | CC(C)C[C@H](NC(=O)c1cc2ccccc2n1C)C(=O)NC1CCCN(S(=O)(=O)c2ccc(Cl)cc2)CC1 (mixture of isomers) [Example 3, 1-Methyl-1H-indole-2-carboxylic acid {(S)-1-[1-(4-chloro-benzenesulfonyl)-azepan-4-ylcarbamoyl]-3-methyl-butyl}-amide] |
| 1 to 7.94 | CC(C)C[C@H](NC(=O)c1cc2ccccc2n1C)C(=O)N(C)C1CCCN(S(=O)(=O)c2ccccc2C#N)CC1 (stereo partly drawn) [Example 11, N-((1S)-1-{[{1-[(2-Cyanophenyl)sulfonyl]hexahydro-1H-azepin-4-yl}(methyl)amino]carbonyl}-3-methylbutyl)-1-methyl-1H-indole-2-carboxamide] |
